Take `CCCn1nc2c(N)nc3ccccc3c2c1N` [Example 1, 2-Propyl-2H-pyrazolo[3,4-c]quinoline-1,4-diamine]: the melting point was 253 °C (dec.).
Under `CCCn1nc2c(N)nc3ccccc3c2c1NCC` [Example 2, N^1-Ethyl-2-propyl-2H-pyrazolo[3,4-c]quinoline-1,4-diamine] stands 193 to 194 °C; under `CCCn1nc2c(N)nc3ccccc3c2c1NCCC1CCN(C(=O)NC(C)C)CC1` [Example 5, 4-{2-[(4-Amino-2-propyl-2H-pyrazolo[3,4-c]quinolin-1-yl)amino]ethyl}-N-isopropylpiperidine-1-carboxamide], 168 to 170 °C.
The molecule `CCCn1nc2c(N)nc3ccccc3c2c1NCCC1CCN(C(C)=O)CC1` [Example 6, N^1-[2-(1-Acetylpiperidin-4-yl)ethyl]-2-propyl-2H-pyrazolo[3,4-c]quinoline-1,4-diamine] yielded a melting point of 203 to 206 °C.
To `CCCn1nc2c(N)nc3ccccc3c2c1NC` [Example 35, N^1-Methyl-2-propyl-2H-pyrazolo[3,4-c]quinoline-1,4-diamine] belongs 200 to 201 °C; to `CCCn1nc2c(N)nc3ccccc3c2c1NC(C)C` [Example 36, N^1-Isopropyl-2-propyl-2H-pyrazolo[3,4-c]quinoline-1,4-diamine], 199 to 200 °C.
Under `CCCn1nc2c(N)nc3ccccc3c2c1NCc1ccccc1` [Example 37, N^1-Benzyl-2-propyl-2H-pyrazolo[3,4-c]quinoline-1,4-diamine] stands 160 to 161 °C.

Values taken from US7943610B2, “Pyrazolopyridine-1,4-diamines and analogs thereof” (3M Innovative Properties Company, priority 2005, dated 2011).
